SMILES strings stand for the structures. ± gives the expanded uncertainty stated by the source.

The conditions of the series: Crystal; DTA.
Take `CCN(C(=O)N(CC)c1ccccc1)c1ccccc1` [1,3-diethyl-1,3-diphenylurea]: the Normal melting temperature was 72.6 ± 0.9 °C.

For the molecule `CC(=O)OCCNc1ccc([N+](=O)[O-])cc1` [2-[(4-nitrophenyl)amino]ethanol 1-acetate], the Normal melting temperature is 113.2 ± 0.9 °C.

Consider `O=[N+]([O-])c1ccccc1Nc1ccccc1` [2-nitrodiphenylamine], for which the Normal melting temperature was determined as 74.8 ± 0.9 °C.

Consider `COCCNc1ccc([N+](=O)[O-])cc1` [N-(2-methoxyethyl)-4-nitroaniline], for which the Normal melting temperature stood at 85.8 ± 0.9 °C.

Consider `c1ccc(Nc2ccccc2)cc1` [diphenylamine], for which the Normal melting temperature was found to be 52.5 ± 0.9 °C.

Values taken from the NIST ThermoML archive (doi:10.1016/j.fluid.2019.06.021).
